Laboratory results from article PMC3081901 (Bioorganic & medicinal chemistry letters, 2010).

Target: T1, human A1 AR (Homo sapiens, UniProt P30542)
T1 sequence (P30542 1-326): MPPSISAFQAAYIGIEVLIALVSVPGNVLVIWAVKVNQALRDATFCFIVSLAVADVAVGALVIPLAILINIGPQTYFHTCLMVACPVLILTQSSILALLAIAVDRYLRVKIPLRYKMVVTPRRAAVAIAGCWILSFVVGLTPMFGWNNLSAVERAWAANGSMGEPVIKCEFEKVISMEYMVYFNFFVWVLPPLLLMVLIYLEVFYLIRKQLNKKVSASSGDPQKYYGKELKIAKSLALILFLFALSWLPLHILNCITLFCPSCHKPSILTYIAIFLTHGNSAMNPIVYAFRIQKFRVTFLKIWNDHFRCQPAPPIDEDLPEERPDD
Experiment: Competition radioligand binding, human A1 AR

Compound Nc1nc2c(cnn2CCCc2ccc(OCC(=O)NCCNCCNC(=O)CCCCCNC(=O)COc3ccc(/C=C/C4=[N+]5C(=Cc6ccc(-c7ccc[nH]7)n6[B-]5(F)F)C=C4)cc3)cc2)c2nc(-c3ccco3)nn12 [Compound 14] has a Ki of 4.18 ± 0.92 µM.
